In one assay the target is Histone deacetylase 1 (Homo sapiens, UniProt Q13547).
Assay [1] has as its target T1, Protein deacetylase HDAC6 (Homo sapiens, UniProt Q9UBN7).
T1 sequence (Q9UBN7 whole entry): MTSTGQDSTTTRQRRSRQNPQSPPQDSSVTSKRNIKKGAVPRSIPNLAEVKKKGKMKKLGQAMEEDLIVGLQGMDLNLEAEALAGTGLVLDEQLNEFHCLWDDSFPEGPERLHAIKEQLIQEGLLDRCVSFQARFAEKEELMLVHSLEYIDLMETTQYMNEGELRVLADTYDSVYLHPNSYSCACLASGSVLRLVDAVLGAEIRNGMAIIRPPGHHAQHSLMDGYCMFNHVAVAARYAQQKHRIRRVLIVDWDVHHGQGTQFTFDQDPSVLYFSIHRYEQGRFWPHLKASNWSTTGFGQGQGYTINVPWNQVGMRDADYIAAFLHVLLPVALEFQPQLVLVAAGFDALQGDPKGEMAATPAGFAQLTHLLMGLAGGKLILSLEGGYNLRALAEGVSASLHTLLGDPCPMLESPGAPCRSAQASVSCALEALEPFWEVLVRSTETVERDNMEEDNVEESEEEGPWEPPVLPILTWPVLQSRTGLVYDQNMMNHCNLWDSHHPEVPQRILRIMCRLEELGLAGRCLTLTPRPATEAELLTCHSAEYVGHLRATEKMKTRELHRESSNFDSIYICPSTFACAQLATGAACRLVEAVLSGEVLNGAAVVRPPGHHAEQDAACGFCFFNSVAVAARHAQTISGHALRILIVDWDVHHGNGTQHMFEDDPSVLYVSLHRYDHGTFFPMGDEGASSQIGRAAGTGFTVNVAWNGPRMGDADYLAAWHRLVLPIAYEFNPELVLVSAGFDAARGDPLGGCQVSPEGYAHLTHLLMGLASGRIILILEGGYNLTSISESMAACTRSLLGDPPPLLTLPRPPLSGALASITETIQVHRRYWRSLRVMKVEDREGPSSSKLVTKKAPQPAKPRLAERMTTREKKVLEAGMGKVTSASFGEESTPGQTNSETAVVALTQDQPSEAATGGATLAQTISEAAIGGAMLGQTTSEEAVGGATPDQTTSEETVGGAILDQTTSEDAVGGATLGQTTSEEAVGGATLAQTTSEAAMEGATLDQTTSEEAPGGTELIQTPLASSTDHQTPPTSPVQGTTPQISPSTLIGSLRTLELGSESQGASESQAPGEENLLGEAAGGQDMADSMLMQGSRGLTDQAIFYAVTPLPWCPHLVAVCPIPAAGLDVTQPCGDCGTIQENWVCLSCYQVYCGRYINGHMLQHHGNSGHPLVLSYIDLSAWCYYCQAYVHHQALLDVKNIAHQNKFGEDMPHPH
Description: Inhibition of HDAC6 (unknown origin) incubated for 30 mins by fluorescence plate reader assay

Another assay has as its target Histone deacetylase 5 (Homo sapiens, UniProt Q9UQL6). Briefly: Inhibition of HDAC5 (unknown origin) incubated for 30 mins by fluorescence plate reader assay.
The target in a further assay is Histone deacetylase 3 (Homo sapiens, UniProt O15379). Briefly: Inhibition of HDAC3 (unknown origin) incubated for 30 mins by fluorescence plate reader assay.
The next assay has as its target T2, Histone deacetylase 8 (Homo sapiens, UniProt Q9BY41).
T2 sequence (Q9BY41 whole entry): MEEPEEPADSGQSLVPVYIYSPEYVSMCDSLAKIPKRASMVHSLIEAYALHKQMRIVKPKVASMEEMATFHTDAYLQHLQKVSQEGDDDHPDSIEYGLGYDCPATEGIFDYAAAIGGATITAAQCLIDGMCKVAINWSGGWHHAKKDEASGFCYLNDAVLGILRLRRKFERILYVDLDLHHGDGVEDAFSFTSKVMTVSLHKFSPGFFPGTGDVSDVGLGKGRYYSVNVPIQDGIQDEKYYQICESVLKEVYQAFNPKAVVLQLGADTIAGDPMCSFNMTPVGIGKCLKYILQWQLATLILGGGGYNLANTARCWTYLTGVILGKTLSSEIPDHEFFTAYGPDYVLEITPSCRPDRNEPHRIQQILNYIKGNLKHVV
As to the kind of experiment: Inhibition of HDAC8 (unknown origin) incubated for 30 mins by fluorescence plate reader assay.

A further assay addresses Histone deacetylase 9 (Homo sapiens, UniProt Q9UKV0). As to the kind of experiment: Inhibition of HDAC9 (unknown origin) incubated for 30 mins by fluorescence plate reader assay.
The next assay addresses Histone deacetylase 4 (Homo sapiens, UniProt P56524). As to the kind of experiment: Inhibition of HDAC4 (unknown origin) incubated for 30 mins by fluorescence plate reader assay.
In assay [2] the target is T3, Polyamine deacetylase HDAC10 (Homo sapiens, UniProt Q969S8).
T3 sequence (Q969S8 whole entry): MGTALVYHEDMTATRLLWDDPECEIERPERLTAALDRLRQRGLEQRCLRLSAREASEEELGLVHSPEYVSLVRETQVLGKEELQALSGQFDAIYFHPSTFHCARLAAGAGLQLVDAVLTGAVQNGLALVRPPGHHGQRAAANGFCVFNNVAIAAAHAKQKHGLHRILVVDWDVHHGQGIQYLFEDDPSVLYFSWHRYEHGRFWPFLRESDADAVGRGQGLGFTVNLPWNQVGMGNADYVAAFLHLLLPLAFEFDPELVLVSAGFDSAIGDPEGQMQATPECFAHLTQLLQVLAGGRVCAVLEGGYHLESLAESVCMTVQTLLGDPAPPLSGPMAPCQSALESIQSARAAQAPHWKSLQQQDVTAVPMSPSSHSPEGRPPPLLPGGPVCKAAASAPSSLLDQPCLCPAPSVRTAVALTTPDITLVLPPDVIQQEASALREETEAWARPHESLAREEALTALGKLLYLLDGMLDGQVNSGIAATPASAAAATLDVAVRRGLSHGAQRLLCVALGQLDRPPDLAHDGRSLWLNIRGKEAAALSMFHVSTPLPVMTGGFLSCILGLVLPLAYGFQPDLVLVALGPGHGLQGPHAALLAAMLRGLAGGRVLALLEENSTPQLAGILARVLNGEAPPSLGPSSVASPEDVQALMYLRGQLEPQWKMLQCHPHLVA
As to the kind of experiment: Inhibition of HDAC10 (unknown origin) incubated for 30 mins by fluorescence plate reader assay.

In a further assay the target is T4, Histone deacetylase 11 (Homo sapiens, UniProt Q96DB2).
T4 sequence (Q96DB2 whole entry): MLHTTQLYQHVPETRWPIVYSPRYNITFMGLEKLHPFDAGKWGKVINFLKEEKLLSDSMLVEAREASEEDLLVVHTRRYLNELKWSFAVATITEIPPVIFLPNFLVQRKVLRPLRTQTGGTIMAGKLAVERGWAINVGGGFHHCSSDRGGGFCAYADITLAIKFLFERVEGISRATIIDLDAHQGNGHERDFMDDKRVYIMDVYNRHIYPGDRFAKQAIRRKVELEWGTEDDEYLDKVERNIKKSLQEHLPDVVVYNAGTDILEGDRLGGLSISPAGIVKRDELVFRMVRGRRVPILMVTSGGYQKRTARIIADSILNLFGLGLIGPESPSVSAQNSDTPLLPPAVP
As to the kind of experiment: Inhibition of HDAC11 (unknown origin) incubated for 30 mins by fluorescence plate reader assay.

The next assay concerns the target Histone deacetylase 2 (Homo sapiens, UniProt Q92769).
For another assay, the target named is T5, Histone deacetylase 7 (Homo sapiens, UniProt Q8WUI4).
T5 sequence (Q8WUI4 whole entry): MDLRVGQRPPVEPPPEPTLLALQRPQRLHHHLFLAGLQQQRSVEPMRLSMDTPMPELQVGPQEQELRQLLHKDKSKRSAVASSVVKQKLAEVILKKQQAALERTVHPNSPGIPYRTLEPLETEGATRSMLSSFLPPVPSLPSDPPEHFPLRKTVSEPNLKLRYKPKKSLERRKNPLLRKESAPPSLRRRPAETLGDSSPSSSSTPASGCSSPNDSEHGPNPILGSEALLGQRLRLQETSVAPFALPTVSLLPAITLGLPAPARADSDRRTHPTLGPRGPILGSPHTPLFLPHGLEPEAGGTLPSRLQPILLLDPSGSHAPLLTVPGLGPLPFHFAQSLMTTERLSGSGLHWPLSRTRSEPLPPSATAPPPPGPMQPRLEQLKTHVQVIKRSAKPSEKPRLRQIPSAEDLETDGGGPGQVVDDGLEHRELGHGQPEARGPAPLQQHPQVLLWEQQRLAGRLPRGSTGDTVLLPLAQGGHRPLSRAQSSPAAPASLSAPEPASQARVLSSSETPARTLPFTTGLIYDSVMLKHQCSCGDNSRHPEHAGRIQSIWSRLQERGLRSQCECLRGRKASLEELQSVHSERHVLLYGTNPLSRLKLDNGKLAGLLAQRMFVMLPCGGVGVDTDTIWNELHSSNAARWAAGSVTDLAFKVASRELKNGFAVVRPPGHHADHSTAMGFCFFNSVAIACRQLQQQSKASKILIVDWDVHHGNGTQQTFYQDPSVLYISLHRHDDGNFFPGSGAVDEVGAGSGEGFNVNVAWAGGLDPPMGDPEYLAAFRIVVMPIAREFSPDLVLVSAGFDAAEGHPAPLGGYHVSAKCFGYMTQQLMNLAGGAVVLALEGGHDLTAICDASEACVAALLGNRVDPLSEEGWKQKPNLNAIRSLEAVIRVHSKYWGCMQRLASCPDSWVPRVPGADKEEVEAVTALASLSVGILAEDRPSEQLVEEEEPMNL
As to the kind of experiment: Inhibition of HDAC7 (unknown origin) incubated for 30 mins by fluorescence plate reader assay.

Structures are written as SMILES. Bounds are passed on as bounds.

One may read the IC50 as the concentration at which inhibition is half-maximal. A low value points to higher potency.

Sequence of Histone deacetylase 1 (Q13547 whole entry): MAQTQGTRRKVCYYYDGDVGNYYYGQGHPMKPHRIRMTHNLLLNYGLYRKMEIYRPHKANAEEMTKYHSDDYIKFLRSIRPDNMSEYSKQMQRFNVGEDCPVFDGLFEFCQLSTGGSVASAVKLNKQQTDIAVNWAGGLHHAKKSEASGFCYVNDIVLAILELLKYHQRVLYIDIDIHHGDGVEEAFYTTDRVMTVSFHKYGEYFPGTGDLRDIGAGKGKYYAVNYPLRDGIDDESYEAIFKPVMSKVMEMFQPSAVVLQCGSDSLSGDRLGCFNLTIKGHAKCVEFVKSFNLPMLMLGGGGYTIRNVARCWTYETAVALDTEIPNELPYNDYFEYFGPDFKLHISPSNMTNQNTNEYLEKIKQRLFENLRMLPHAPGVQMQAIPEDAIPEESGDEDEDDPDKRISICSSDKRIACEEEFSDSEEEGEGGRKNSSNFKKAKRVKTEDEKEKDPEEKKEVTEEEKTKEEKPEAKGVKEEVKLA
Sequence of Histone deacetylase 3 (O15379 whole entry): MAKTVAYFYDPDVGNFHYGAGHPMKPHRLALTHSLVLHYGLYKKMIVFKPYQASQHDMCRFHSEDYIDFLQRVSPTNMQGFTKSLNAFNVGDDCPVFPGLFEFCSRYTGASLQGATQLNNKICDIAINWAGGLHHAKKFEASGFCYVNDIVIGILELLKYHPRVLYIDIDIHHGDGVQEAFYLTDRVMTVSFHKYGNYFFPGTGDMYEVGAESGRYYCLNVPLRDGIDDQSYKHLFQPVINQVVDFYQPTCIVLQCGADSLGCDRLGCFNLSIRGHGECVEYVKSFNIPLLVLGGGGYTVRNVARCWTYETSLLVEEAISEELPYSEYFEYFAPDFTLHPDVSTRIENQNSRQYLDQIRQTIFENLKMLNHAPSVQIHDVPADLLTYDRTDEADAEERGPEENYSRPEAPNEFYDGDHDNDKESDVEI
Sequence of Histone deacetylase 5 (Q9UQL6 whole entry): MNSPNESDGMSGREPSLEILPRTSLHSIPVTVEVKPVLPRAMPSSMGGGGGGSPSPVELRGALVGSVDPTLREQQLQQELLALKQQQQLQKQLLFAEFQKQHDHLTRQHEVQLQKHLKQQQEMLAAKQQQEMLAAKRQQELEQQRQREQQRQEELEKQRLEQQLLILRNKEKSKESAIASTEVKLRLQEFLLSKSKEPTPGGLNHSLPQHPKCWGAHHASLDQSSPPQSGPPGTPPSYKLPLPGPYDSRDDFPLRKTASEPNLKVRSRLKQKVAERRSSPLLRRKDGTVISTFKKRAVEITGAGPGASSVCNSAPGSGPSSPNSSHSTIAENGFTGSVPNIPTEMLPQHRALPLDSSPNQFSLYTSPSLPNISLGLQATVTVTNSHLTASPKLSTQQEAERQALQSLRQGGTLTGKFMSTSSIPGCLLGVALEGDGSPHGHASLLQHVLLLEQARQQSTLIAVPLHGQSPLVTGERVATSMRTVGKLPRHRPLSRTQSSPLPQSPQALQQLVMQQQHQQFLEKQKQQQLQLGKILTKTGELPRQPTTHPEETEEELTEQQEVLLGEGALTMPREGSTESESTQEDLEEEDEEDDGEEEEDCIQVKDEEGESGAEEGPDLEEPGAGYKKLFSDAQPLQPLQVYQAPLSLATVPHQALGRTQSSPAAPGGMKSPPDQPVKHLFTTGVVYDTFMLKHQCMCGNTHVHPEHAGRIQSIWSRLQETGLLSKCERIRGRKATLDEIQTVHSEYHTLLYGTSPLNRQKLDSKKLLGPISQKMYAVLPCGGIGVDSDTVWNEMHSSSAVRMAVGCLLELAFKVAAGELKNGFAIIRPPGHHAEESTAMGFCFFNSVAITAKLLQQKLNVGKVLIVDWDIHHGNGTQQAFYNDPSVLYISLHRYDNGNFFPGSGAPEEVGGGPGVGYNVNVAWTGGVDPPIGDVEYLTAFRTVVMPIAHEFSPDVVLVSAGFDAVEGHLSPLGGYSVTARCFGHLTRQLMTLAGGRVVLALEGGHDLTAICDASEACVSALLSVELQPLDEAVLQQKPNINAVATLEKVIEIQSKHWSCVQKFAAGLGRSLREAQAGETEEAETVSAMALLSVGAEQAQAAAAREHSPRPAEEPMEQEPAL
Sequence of Histone deacetylase 4 (P56524 whole entry): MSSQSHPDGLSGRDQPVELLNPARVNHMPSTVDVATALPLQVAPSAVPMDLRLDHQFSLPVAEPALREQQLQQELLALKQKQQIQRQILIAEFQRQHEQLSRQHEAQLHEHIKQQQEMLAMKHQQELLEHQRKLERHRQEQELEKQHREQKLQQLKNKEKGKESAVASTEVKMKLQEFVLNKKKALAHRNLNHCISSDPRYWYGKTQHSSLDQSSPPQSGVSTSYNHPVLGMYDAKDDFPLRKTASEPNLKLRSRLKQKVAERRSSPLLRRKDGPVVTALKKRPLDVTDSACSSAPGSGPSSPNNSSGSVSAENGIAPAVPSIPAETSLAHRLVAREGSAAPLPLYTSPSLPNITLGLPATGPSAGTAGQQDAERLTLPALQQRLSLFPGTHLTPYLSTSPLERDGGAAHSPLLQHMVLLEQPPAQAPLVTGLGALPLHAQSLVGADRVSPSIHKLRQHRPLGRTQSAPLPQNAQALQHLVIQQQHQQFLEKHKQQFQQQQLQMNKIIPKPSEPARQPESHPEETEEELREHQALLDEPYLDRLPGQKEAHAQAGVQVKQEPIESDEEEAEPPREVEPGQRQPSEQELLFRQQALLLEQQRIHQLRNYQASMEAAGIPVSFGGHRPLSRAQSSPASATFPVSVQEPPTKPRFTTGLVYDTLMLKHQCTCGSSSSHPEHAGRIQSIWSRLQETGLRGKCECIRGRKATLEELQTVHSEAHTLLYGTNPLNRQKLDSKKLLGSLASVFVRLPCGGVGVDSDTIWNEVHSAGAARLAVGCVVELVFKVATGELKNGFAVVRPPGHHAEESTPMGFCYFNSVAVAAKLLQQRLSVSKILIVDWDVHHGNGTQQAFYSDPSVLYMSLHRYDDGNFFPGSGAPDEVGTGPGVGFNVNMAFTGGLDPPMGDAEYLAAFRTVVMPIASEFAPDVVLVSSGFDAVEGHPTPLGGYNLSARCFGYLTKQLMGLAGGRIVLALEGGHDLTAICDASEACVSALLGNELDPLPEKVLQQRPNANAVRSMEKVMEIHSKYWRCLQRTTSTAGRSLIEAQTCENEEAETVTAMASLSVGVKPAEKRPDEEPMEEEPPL
Sequence of Histone deacetylase 2 (Q92769 whole entry): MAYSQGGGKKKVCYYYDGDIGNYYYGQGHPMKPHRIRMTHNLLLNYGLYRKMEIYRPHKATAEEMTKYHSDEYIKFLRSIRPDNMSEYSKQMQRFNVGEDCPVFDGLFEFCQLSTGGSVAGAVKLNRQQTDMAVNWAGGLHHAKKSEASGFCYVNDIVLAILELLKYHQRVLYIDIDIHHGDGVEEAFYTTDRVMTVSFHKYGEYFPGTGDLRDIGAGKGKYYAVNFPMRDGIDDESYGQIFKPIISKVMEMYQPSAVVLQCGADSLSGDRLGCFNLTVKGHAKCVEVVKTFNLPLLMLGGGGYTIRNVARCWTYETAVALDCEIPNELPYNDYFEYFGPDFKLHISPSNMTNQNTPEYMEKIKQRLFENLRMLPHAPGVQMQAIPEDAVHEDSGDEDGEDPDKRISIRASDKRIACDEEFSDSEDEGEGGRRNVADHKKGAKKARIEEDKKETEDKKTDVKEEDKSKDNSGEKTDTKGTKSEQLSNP
Sequence of Histone deacetylase 9 (Q9UKV0 whole entry): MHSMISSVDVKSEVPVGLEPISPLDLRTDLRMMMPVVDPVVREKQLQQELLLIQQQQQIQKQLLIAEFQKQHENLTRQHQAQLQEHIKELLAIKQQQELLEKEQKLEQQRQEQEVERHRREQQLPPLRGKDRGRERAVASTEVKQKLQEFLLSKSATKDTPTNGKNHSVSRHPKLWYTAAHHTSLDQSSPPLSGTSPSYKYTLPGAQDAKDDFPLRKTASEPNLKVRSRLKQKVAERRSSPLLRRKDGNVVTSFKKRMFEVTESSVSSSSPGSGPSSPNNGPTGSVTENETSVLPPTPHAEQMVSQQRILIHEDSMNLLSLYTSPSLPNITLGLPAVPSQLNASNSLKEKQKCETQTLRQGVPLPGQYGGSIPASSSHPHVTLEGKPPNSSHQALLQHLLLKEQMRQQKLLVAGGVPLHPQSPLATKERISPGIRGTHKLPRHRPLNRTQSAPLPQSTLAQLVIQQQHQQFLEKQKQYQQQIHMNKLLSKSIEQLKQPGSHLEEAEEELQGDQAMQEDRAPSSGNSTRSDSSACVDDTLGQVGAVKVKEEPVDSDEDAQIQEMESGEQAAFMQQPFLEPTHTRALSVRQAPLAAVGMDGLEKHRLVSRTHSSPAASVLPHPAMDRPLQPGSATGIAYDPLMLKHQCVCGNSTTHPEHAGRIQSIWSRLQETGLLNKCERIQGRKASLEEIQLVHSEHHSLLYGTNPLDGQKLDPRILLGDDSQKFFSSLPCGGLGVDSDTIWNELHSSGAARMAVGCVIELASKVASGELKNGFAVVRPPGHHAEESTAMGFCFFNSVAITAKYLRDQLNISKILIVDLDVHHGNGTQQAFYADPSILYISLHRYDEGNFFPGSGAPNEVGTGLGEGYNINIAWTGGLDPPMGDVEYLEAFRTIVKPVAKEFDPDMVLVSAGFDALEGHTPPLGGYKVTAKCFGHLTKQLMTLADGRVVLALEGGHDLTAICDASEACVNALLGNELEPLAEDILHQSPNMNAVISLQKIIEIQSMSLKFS
Description for Histone deacetylase 2: Inhibition of HDAC2 (unknown origin) incubated for 30 mins by fluorescence plate reader assay

Regarding `O=C(NO)c1ccc(CNC(=O)c2ccccc2)cc1`, the IC50 against Histone deacetylase 1 came out at 0.941 µM; in assay [1], 0.087 µM.
Turning to `O=C(NO)c1ccc(CN(Cc2ccccc2)C(=O)c2ccccc2)cc1`, the 50% inhibitory concentration (IC50) against Histone deacetylase 1 was 0.85 µM; against Histone deacetylase 5, above 10 µM; at Histone deacetylase 3, 1.93 µM; against Histone deacetylase 8 it was 4.48 µM; on Histone deacetylase 9 it was above 10 µM; against Histone deacetylase 4, above 10 µM. Also, the IC50 in assay [2] is 1.41 µM; against Histone deacetylase 11, above 10 µM; against Histone deacetylase 2 it was above 10 µM; against Histone deacetylase 7, 4.95 µM.

For the origin of these results see ChEMBL document CHEMBL5518175, “Design, synthesis, and biological evaluation of HDAC6 inhibitors targeting L1 loop and serine 531 residue” (Eur J Med Chem, 2024).
